The values below are quoted from earlier work in US20100227313A1, “Methods and Compositions for Determining Altered Susceptibility of HIV-1 to Protease Inhibitor Treatment” (priority 2007, published 2010).

In the series the test system is HIV protease. Particulars: 2006, cited from earlier work.

Take `CC(C)CN(C[C@@H](O)[C@H](Cc1ccccc1)NC(=O)O[C@H]1CCOC1)S(=O)(=O)c1ccc(N)cc1` [APV, amprenavir]: under “I47A, de Mendoza et al.”, the “effect of I47A mutation on susceptibility” value is given as “reduced susceptibility”. Besides, where the note is “L33F, Kozal et al.”, the “effect of L33F mutation in protease on susceptibility” value was “correlate with resistance”.
